Assay results published in BindingDB's records for doi:10.1021/jm050267e (Johnson & Johnson Pharmaceutical, 2005).
pIC50: −log10 of the molar value.

Key:
Experiment in all cases: Kinase Inhibition Assay
[1] = target: Cyclin-dependent kinase/G2/mitotic-specific cyclin- 1 (Homo sapiens, UniProt P06493); settings: pH 8; 30 °C
Protocol: (§1) The enzyme was assayed with a biotinylated peptide substrate and test compounds in the presence of 10 uM ATP/[gamma-33P]ATP in a streptavidin coated FlashPlate (Perkin-Elmer, Boston, MA). Inhibition of the enzymatic activity due to the compound was measured by observing a reduced amount of 33P-gamma-ATP incorporated into the immobilized peptide relative to untreated controls. Linear regression analysis of the percent of inhibition by the test compound was used to calculate IC50 values.

[2] = target: Cyclin-dependent kinase 4/G1/S-specific cyclin-D1 (Mus musculus, UniProt P30285)
Cyclin-dependent kinase 4/G1/S-specific cyclin-D1, sequence (P25322 whole entry): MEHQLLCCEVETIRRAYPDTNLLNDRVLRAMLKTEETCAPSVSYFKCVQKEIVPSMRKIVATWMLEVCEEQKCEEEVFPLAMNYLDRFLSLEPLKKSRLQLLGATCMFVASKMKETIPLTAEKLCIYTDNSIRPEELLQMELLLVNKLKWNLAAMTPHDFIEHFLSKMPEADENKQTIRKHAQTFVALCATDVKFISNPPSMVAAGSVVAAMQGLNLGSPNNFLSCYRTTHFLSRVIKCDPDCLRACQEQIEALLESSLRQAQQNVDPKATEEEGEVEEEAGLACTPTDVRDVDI
Cyclin-dependent kinase 4/G1/S-specific cyclin-D1, sequence (P30285 whole entry): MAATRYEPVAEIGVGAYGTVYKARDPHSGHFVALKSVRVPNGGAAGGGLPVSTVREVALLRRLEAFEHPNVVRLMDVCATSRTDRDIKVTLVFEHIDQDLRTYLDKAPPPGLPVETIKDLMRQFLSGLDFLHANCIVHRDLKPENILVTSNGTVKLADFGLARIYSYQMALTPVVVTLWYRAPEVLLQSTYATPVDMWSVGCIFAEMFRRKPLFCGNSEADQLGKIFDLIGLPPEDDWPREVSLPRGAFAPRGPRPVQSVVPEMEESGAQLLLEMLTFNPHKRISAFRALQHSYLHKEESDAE
Protocol: as §1

[3] = target: Vascular endothelial growth factor receptor 2 (Rattus norvegicus, UniProt O08775)
Vascular endothelial growth factor receptor 2, sequence (O08775 whole entry): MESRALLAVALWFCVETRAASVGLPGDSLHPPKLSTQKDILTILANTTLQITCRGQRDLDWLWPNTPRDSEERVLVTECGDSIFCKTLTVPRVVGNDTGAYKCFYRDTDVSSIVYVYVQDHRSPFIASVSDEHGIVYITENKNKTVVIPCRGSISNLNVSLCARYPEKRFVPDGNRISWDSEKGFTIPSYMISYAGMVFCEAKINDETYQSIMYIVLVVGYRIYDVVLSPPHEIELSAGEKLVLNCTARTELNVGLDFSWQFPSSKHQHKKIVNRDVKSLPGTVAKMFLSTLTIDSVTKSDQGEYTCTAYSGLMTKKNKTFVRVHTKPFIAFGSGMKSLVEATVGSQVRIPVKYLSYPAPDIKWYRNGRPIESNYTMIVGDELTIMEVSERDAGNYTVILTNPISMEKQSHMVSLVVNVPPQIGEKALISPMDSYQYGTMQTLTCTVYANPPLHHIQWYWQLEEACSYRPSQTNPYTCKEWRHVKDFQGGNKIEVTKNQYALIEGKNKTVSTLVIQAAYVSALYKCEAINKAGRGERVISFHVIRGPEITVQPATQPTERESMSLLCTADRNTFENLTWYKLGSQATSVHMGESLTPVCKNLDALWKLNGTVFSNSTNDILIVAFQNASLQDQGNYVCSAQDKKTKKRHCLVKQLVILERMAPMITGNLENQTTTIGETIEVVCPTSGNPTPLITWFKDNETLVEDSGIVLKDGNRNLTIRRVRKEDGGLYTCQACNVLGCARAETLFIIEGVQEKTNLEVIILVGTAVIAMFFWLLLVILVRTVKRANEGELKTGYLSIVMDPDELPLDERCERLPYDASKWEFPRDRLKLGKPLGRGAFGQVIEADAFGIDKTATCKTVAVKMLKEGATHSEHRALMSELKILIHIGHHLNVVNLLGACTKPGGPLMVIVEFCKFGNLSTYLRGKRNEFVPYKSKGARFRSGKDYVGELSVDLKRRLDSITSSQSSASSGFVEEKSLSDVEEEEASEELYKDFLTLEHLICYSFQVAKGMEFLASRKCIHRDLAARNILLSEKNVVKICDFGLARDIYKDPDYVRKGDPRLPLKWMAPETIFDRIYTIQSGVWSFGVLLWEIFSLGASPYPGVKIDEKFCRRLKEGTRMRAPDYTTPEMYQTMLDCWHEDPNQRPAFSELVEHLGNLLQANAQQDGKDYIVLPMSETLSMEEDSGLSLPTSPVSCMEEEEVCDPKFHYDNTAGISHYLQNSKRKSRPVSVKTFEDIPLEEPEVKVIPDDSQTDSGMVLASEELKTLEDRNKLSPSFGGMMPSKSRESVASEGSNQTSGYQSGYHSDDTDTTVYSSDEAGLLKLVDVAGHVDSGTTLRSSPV
Protocol: as §1

[4] = target: Cyclin-A2/Cyclin-dependent kinase 2 (Homo sapiens, UniProt P24941)
Protocol: as §1

Cyclin-dependent kinase/G2/mitotic-specific cyclin- 1, sequence (P06493 whole entry): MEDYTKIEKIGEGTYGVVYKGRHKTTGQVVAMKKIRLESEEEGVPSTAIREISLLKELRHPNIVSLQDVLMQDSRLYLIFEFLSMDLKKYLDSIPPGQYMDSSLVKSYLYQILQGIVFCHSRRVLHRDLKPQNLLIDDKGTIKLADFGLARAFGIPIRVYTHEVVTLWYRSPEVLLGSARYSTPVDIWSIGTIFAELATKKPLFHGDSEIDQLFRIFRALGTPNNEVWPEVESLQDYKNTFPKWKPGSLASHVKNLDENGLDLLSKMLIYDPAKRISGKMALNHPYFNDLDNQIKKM
Cyclin-dependent kinase/G2/mitotic-specific cyclin- 1, sequence (P14635 whole entry, further chain): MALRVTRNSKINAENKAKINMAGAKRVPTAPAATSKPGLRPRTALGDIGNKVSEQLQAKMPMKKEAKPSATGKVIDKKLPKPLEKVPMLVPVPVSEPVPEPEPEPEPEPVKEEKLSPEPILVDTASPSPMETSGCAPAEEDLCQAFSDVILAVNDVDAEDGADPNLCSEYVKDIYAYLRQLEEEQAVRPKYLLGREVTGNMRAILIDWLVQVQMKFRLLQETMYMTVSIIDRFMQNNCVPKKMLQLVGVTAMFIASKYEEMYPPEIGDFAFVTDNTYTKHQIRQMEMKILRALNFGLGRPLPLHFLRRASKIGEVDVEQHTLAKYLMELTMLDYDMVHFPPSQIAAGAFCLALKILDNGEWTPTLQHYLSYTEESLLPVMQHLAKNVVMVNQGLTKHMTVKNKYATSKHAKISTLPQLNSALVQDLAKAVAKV

Compound `Nc1nc(Nc2ccc(S(N)(=O)=O)cc2)nn1C(=O)c1c(F)ccc(F)c1F` [4-[[5-Amino-1-(2,3,6-trifluorobenzoyl)-1H-1,2,4-triazol-3-yl]amino]-benzenesulfonamide] has a pIC50 [1] of 8.49.
`Cc1ccc(F)c(C(=O)n2nc(Nc3ccc(S(N)(=O)=O)cc3)nc2N)c1F` [4-({5-amino-1-[(2,6-difluoro-3-methylphenyl)carbonyl]-1H-1,2,4-triazol-3-yl}amino)benzene-1-sulfonamide] was tested, and the pIC50 [2] was 6.72, the pIC50 [1] was 8.10 and the pIC50 [3] was 6.29. It also gave a pIC50 [4] of 9.52.
